The subject of data set [1] is human T cells. The data set is described as follows: Human T cell assays (summary). The format is cell-based. On the procedure:
AHR plays a key role in immune cells and its' inhibition is proposed to reverse immune suppression and activate T cells. The ability of Compound A to inhibit AHR-dependent CYP1A1 expression and cytokine production was assessed in primary human T cells. AHR directly regulates the expression of the immune suppressive cytokine IL-22. Human T cells isolated from healthy donor PBMCs were activated with CD3/CD28 tetramer and incubated for 24 hours with Compound A. Cell pellets were processed for RNA isolation and CYP1A1 analysis by quantitative reverse-transcriptase polymerase chain reaction. For the cytokine analysis assay, CD3/CD28 activated T cells were treated with Compound A, and culture supernatants were collected after 48 hours for analysis of IL-22 levels using Meso Scale Discovery V-plex IL-22 plates. Compound A inhibited AHR-dependent gene expression in activated human T cells by decreasing expression of CYP1A1 in a concentration--dependent manner.

In data set [2] the target is AHR (Macaca fascicularis, UniProt A0A7N9CQA9). The data set is described as follows: AHR-dependent gene expression in cynomolgus PBMCs (Quantigene Plex). The format is cell-based, cynomolgus macaque. The note with it: cynomolgus PBMCs ex vivo. As to the method:
The effect of Compound A on AHR-dependent gene expression was assessed in peripheral blood mononuclear cells (PBMCs) of cynomolgus macaque monkeys to assess activity in the non-rodent tox species. Cynomolgus PBMCs were treated ex vivo with Compound A and gene expression of AHR-dependent genes CYP1B1 and AHR was quantified using Quantigene Plex (QGP) custom panels.

The nature of data set [3]: Levels of doxorubicin in plasma (UPLC). The class given is in vivo, mouse. The note with it: day 28 after cell inoculation; FIG. 7. As to the method:
To analyze the levels of doxorubicin in plasma, blood was collected using retro-orbital vein bleeding. Plasma was generated after centrifuging blood in dipotassium EDTA tubes for 10 min at 4° C. Plasma was transferred in new tubes and stored at −80° C.
Doxorubicin levels in plasma were analyzed by UPLC.
To determine whether Compound A treatment had any effects on doxorubicin metabolism, the levels of doxorubicin in plasma were analyzed on day 28 after cell inoculation.

A short description of data set [4]: Nonclinical safety studies in monkeys (incl. 28-day GLP). The format is in vivo, monkey.
Data set [5] concerns the target T1, AHR (Homo sapiens, UniProt P35869).
T1 sequence (P35869 11-848): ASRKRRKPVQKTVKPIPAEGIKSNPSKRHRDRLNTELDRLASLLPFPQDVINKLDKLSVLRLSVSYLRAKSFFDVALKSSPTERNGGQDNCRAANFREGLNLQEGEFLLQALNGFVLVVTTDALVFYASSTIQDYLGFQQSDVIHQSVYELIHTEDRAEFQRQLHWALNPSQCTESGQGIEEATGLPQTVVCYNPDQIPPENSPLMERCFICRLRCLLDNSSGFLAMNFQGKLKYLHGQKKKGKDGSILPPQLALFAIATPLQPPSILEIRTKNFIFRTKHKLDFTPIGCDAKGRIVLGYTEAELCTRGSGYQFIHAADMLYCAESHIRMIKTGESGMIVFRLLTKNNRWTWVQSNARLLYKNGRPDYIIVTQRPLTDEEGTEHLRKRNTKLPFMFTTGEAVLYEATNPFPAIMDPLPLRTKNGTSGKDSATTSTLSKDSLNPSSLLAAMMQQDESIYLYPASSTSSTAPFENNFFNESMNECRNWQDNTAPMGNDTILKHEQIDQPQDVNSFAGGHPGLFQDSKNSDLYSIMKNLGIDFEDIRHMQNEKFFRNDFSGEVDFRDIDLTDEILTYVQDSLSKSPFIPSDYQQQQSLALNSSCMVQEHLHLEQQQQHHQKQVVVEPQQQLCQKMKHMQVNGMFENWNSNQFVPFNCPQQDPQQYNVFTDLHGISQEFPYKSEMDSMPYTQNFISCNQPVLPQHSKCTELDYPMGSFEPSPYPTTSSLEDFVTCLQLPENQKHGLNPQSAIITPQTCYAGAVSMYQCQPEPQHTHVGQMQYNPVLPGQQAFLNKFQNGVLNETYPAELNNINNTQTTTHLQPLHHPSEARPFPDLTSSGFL
The data set is described as follows: CYP1B1 gene expression in human whole blood exposed ex vivo. The class given is cell-based. The arrangement: endogenous in cells. The note with it: Compound A concentrations >0.5 μM; both donors; basal and ligand activated (L-kynurenine) conditions; 24 hours. As to the method:
To further examine the effects of Compound A on basal and ligand-activated AHR-dependent gene expression in human immune cells, blood samples from 2 healthy human donors were exposed ex vivo to Compound A in the presence or absence of […] L-kynurenine to activate AHR. After 24 hours, cells were evaluated for CYP1B1 gene expression. […] In both donors, Compound A concentrations >0.5 μM inhibited CYP1B1 gene expression by greater than 50% under basal and ligand activated conditions.

The structures appear in SMILES notation. Entries after “also recorded” stand apart in the source; their conditions may differ. Read-outs that look alike come from different tables or passages of the source.

Sequence of AHR (Macaca fascicularis, UniProt A0A7N9CQA9) (A0A7N9CQA9 entry or part of it): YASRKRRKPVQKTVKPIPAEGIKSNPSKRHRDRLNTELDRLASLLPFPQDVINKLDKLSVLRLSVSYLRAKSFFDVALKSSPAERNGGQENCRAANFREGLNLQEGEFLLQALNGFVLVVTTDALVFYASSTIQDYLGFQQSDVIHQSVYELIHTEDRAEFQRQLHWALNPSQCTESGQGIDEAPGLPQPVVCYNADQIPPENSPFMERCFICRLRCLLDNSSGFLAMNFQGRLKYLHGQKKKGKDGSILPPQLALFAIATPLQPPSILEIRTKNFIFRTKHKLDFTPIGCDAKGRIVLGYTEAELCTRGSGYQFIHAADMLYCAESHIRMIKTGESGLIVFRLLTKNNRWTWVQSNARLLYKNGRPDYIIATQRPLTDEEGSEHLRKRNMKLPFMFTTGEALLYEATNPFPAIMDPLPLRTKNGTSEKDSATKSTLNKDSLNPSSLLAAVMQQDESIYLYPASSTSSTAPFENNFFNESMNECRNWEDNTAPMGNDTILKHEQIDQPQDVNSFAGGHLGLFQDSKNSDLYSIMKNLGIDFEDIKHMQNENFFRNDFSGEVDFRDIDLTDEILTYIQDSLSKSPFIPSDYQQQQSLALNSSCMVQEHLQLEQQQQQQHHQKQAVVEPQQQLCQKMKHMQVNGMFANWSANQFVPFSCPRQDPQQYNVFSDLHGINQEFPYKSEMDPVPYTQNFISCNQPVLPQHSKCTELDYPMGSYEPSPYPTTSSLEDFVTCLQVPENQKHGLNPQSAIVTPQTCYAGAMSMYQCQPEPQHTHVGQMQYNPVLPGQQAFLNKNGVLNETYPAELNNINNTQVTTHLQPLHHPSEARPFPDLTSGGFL

The IC50 is the concentration that inhibits the measured activity by half. Turning to `CC(C)c1cnn2c(N[C@@H]3CCc4[nH]c5ccccc5c4C3)nc(-c3cncc(F)c3)nc12` [Compound A, (R)—N-(2-(5-fluoropyridin-3-yl)-8-isopropylpyrazolo[1,5-a][1,3,5]triazin-4-yl)-2,3,4,9-tetrahydro-1H-carbazol-3-amine], in data set [1], the T cell state result is given as “induces an activated T cell state”; the “pro-inflammatory cytokines, such as IL-2 and IL-9” value is recorded as “increase”. The IC50 in data set [2] (read-out: IC50, inhibition of AHR target gene AHR) is 30 nM. In data set [2] (read-out: IC50, inhibition of AHR target gene Cyp1B1), the 50% inhibitory concentration (IC50) worked out at 6 nM. Besides, the “effect of Compound A treatment on doxorubicin drug levels in plasma / metabolism of Doxil” value in data set [3] is listed as “does not affect; also recorded: did not have any effect”. For the same compound, the “noteworthy findings (monkey)” value in data set [4] (monkey) was “decreased thymus weights and cortical lymphocytes”. Moreover, the QTc prolongation result in data set [4] (monkeys) was “up to 11%”. Also, the “inhibition of CYP1B1 gene expression” value in data set [5] is given as “greater than 50%”.

The record behind these values is patent US20240148740A1, “COMBINATION OF AN AHR INHIBITOR WITH A PDX INHIBITOR OR DOXORUBICINE” (Ikena Oncology, Inc., priority 2020, published 2024).
